Each structure is given as a SMILES string.

For one test, the system named is NCI-H1975 cells. The experiment in a line: Inhibition of NCI-H1975 cell proliferation (CellTiter-Glo). It is filed as cell-based. Conditions: for IC50: Homo sapiens, NCI-H1975, 72 h, NCI-H1975 cell proliferation, 72 hours, CellTiter-Glo, read-out: EGFR IC50 (nM) H1975; for Selectivity of wild-type/mutant-type: ratio A431 IC50 / H1975 IC50, cells. Here is the method: 3. Experiment on the Inhibition of NCI-H1975 Cell Proliferation
In this experiment, the inhibitory effect of the compounds on NCI-H1975 cell proliferation was tested by a CellTiter-Glo method, and the half maximal inhibitory concentration (IC50) of the compounds on the activity of cell proliferation was determined.
The culture plate was incubated in an incubator for 16 to 24 hours (37° C., 5% CO2).
(§1) 2) Different concentrations of the test compound in a gradient dilution were added to the cells in the culture plate. The culture plate was incubated in an incubator for 72 hours (37° C., 5% CO2).
3) 50 to 100 μL of CellTiter-Glo reagent was added to each well. Then, the culture plate was shaken for 10 minutes, and left to stand at room temperature for 10 minutes.
(§2) 4) The chemiluminescence signal values of each plate were determined by a microplate reader.
5) The inhibition rates were calculated according to the chemiluminescence signal values.
6) The IC50 of the compound was obtained by curve fitting according to the inhibition rates at different concentrations.

The next test concerns the target wild-type EGFR enzyme (Homo sapiens, UniProt P00533). The experiment in a line: Enzymologic experiment of wild-type (WT) EGFR (TR-FRET). The format is biochemical. Conditions: ATP 0.1 to 5 uM. On the procedure: 2. Enzymologic Experiment of Wild-Type (WT) EGFR
In this experiment, the inhibitory effect of compounds on wild-type EGFR enzyme was tested by a fluorescence resonance energy transfer (TR-FRET) method, and the half maximal inhibitory concentration IC50 of the compounds on enzymatic activity was determined.
1) 1 to 5 μL of wild-type EGFR enzyme solution was added to a 384-well plate, and the final concentration of the enzyme was 0.1 to 1 nM.
(§3) 2) 1 to 5 μL of diluted solution in gradient of the compound was added.
(§4) 3) The mixture was incubated for 10 minutes at room temperature.
(§5) 6) 5 μL of EDTA stop solution was added to terminate the reaction for 5 minutes.
7) 5 μL of a test solution containing the labeled antibody was added, and the mixture was incubated at room temperature for 1 hour.
9) The inhibition rates were calculated from the fluorescence signal values.
(§6) 10) The IC50 of the compound was obtained by curve fitting according to the inhibition rates at different concentrations.
In general terms: In TR-FRET formats the signal depends on donor and acceptor labels being close together.

The test system of another test is A431 cells. The experiment in a line: Inhibition of A431 cell proliferation (CellTiter-Glo). The format is cell-based. As to conditions: Homo sapiens, A-431, 72 h, read-out: EGFR IC50 (nM) A431. Here is the method: 4. Experiment on the Inhibition of A431 Cell Proliferation
In this experiment, the inhibitory effect of the compounds on A431 cell proliferation was tested by a CellTiter-Glo method, and the half maximal inhibitory concentration (IC50) of the compounds on the activity of cell proliferation was determined.
The culture plate was incubated in the incubator for 16 to 24 hours (37° C., 5% CO2).
as §1
3) 50 to 100 μL of CellTiter-Glo reagent was added to each well. Then the culture plate was shaken for 10 minutes, and left to stand at room temperature for 10 minutes.
as §2
5) The inhibition rates were calculated according to the chemiluminescence signal values. 6) The IC50 of the compound was obtained by curve fitting according to the inhibition rates at different concentrations.

In test [1] the target is exon 20 T790M mutant-type EGFR enzyme (Homo sapiens, UniProt P00533, T790M). As to the kind of experiment: Enzymologic experiment of T790M mutant-type EGFR (TR-FRET). It is filed as biochemical. As to conditions: for IC50: T790M EGFR enzyme, TR-FRET, ATP 1 to 10 uM; for Selectivity of wild-type/mutant-type: ratio WT IC50 / T790M IC50, enzyme. On the procedure:
as §3, §4, §5
7) […] of a test solution containing the labeled antibody was added, and the mixture was incubated at room temperature for 1 hour.
9) The inhibition rates were calculated according to the fluorescence signal values.
as §6

wild-type EGFR enzyme, sequence (P00533 25-1210): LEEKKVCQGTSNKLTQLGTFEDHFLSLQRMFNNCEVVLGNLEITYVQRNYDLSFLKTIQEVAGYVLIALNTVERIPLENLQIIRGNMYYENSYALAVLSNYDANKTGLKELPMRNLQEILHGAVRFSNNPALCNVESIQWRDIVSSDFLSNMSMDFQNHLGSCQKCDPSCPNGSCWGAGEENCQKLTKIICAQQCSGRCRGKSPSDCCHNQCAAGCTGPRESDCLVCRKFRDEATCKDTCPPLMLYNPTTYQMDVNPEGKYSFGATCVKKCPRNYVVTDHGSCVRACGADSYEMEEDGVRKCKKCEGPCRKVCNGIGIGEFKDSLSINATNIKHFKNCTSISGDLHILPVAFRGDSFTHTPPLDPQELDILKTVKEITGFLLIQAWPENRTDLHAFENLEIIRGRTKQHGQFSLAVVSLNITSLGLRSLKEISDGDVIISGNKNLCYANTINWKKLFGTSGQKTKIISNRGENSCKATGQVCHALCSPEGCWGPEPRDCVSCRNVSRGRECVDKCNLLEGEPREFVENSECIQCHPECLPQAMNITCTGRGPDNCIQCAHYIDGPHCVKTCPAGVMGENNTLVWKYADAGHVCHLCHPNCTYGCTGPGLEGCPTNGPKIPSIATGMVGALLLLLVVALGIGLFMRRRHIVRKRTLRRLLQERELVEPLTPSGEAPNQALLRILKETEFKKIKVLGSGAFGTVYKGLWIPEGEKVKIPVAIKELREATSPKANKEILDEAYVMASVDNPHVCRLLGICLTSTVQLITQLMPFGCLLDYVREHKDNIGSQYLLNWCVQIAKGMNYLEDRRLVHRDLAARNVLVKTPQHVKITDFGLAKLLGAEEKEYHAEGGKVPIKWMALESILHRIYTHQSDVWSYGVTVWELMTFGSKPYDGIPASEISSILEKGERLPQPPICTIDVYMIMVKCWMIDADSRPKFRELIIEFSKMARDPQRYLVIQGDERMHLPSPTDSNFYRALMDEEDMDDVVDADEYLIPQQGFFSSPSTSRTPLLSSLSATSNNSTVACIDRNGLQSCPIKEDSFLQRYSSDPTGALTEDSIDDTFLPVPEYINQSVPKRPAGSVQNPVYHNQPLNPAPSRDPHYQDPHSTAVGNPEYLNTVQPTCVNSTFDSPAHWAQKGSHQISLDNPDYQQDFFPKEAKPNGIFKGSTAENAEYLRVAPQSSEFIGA
exon 20 T790M mutant-type EGFR enzyme, sequence (P00533 25-1210 T790M): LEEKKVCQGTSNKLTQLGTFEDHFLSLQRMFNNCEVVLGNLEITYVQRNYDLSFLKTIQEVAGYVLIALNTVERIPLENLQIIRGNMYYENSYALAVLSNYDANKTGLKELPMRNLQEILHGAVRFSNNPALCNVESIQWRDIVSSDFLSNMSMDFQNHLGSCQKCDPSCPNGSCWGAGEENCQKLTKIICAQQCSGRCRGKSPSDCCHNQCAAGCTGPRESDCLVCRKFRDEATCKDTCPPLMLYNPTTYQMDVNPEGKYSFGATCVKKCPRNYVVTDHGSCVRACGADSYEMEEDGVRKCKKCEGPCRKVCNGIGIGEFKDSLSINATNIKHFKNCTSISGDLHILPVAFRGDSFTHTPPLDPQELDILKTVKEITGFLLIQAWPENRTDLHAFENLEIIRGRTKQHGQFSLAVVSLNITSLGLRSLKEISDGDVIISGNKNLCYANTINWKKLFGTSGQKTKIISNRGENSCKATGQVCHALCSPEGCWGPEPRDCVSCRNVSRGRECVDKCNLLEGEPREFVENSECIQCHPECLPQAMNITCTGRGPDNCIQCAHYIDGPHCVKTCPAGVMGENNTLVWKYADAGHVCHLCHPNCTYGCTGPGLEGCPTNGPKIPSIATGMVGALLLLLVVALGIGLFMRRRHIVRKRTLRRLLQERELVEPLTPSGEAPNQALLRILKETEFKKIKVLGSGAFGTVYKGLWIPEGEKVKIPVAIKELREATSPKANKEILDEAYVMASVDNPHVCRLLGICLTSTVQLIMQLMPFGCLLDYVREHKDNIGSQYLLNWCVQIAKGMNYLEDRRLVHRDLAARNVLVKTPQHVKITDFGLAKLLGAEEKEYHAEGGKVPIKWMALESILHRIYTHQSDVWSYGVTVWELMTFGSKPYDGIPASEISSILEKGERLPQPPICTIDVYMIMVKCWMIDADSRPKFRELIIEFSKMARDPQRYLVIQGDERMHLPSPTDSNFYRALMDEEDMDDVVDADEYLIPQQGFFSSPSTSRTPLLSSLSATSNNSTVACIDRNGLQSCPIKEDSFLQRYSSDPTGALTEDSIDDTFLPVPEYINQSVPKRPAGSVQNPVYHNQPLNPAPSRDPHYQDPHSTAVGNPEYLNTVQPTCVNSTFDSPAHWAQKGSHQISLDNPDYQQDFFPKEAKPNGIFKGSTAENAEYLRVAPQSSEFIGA

Turning to `C=CC(=O)Nc1cc(Nc2nccc(-c3cn(C)c4ccccc34)n2)c(OC(F)F)cc1N1CCN(C)CC1` [Example 2, N-(4-(difluoromethoxy)-5-((4-(1-methyl-1H-indol-3-yl)pyrimidin-2-yl)amino)-2-(4-methylpiperazine-1-yl)phenyl)acrylamide], the IC50 came out at 1.36 nM with NCI-H1975 cells, 143 nM on wild-type EGFR enzyme, 224 nM in the test with A431 cells and 9.26 nM in test [1]. The Selectivity of wild-type/mutant-type in the test on NCI-H1975 cells stood at 164; in test [1], 15.

With `C=CC(=O)Nc1cc(Nc2nccc(-c3cn(C)c4cc(OC)ccc34)n2)c(OC(F)F)cc1N(C)CCN(C)C` [Example 4, N-(4-(difluoromethoxy)-2-((2-(dimethylamino)ethyl)(methyl)amino)-5-((4-(6-methoxy-1-methyl-1H-indol-3-yl)pyrimidin-2-yl)amino)phenyl)acrylamide], the 50% inhibitory concentration (IC50) came out at 10 nM in the test on NCI-H1975 cells, 6.41 nM at wild-type EGFR enzyme, 158 nM in the test on A431 cells and 0.39 nM in test [1]. In addition, the Selectivity of wild-type/mutant-type is 15.78 with NCI-H1975 cells and 16.3 in test [1].

As for `C=CC(=O)Nc1cc(Nc2nccc(-c3cn(CCO)c4ccccc34)n2)c(OC(F)F)cc1N(C)CCN(C)C` [Example 6, N-(4-(difluoromethoxy)-2-((2-(dimethylamino)ethyl)(methyl)amino)-5-((4-(1-(2-hydroxyethyl)-1H-indol-3-yl)pyrimidin-2-yl)amino)phenyl)acrylamide], the half-inhibitory concentration (IC50) in the test with NCI-H1975 cells amounted to 2.2 nM; against wild-type EGFR enzyme, 1.54 nM; in the test on A431 cells it was 208 nM.

On to `C=CC(=O)Nc1cc(Nc2nccc(-c3cn(C(C)=O)c4ccccc34)n2)c(OC(F)F)cc1N(C)CCN(C)C` [Example 7, N-(5-((4-(1-acetyl-1H-indol-3-yl)pyrimidin-2-yl)amino)-4-(difluoromethoxy)-2-((2-(dimethylamino)ethyl)(methyl)amino)phenyl)acrylamide], for which the values for the 50% inhibitory concentration (IC50) with NCI-H1975 cells, against wild-type EGFR enzyme and in the test with A431 cells were 15.8 nM, 15.5 nM and 192 nM, respectively.

For `C=CC(=O)Nc1cc(Nc2nccc(-c3cn(C)c4c(F)cc(F)cc34)n2)c(OC)cc1N(C)CCN(C)C` [Example 89, N-(5-((4-(5,7-difluoro-1-methyl-1H-indol-3-yl)pyrimidin-2-yl)amino)-2-((2-(dimethylamino)ethyl)(methyl)amino)-4-methoxyphenyl)acrylamide], the IC50 in the test on NCI-H1975 cells is 112 nM; on wild-type EGFR enzyme, 34.6 nM; in test [1], 8.57 nM. For the same molecule, the Selectivity of wild-type/mutant-type in test [1] was 4.04.

For the molecule `C#Cc1ccc2c(-c3ccnc(Nc4cc(NC(=O)C=C)c(N(C)CCN(C)C)cc4OC)n3)cn(C)c2c1` [Example 95, N-(2-((2-(dimethylamino)ethyl)(methyl)amino)-5-((4-(6-ethynyl-1-methyl-1H-indol-3-yl)pyrimidin-2-yl)amino)-4-methoxyphenyl)acrylamide], the half-maximal inhibitory concentration (IC50) turned out to be 10.9 nM in the test on NCI-H1975 cells, 5.35 nM against wild-type EGFR enzyme and 0.51 nM in test [1].

In the case of `C=CC(=O)Nc1cc(Nc2ncc(Cl)c(-c3cn(C4CC4)c4ccccc34)n2)c(OC)cc1N(C)CCN(C)C` [Example 100, N-(5-((5-chloro-4-(1-cyclopropyl-1H-indol-3-yl)pyrimidin-2-yl)amino)-2-((2-(dimethylamino)ethyl)(methyl)amino)-4-methoxyphenyl)acrylamide], the IC50 in the test on NCI-H1975 cells was 8.72 nM; in the test with A431 cells, 350 nM.

For `C=CC(=O)Nc1cc(Nc2nccc(-c3nn(C4CC4)c4ccccc34)n2)c(OC)cc1N(C)CCN(C)C` [Example 119, N-(5-((4-(1-cyclopropyl-1H-indazol-3-yl)pyrimidin-2-yl)amino)-2-((2-(dimethylamino)ethyl)(methyl)amino)-4-methoxyphenyl)acrylamide], the IC50 with NCI-H1975 cells came to 2.32 nM; against wild-type EGFR enzyme, 4.34 nM; in test [1] it was 0.47 nM. Besides, the Selectivity of wild-type/mutant-type in test [1] stood at 9.23.

Regarding `C=CC(=O)Nc1cc(Nc2nccc(-c3cn(C4CC4)c4ccccc34)n2)c(OC)cc1N(C)CCN1CCOCC1` [Example 124, N-(5-((4-(1-cyclopropyl-1H-indol-3-yl)pyrimidin-2-yl)amino)-4-methoxy-2-(methyl(2-morpholinoethyl)amino)phenyl)acrylamide], the half-maximal inhibitory concentration (IC50) in the test on NCI-H1975 cells is 30.8 nM; against wild-type EGFR enzyme, 190 nM; in test [1], 4.18 nM. In addition, the Selectivity of wild-type/mutant-type in test [1] is 45.43.

As to `C=CCn1cc(-c2ccnc(Nc3cc(NC(=O)C=C)c(N(C)CCNC)cc3OC)n2)c2ccccc21` [Example 126, N-(5-((4-(1-allyl-1H-indol-3-yl)pyrimidin-2-yl)amino)-4-methoxy-2-(methyl(2-(methylamino)ethyl)amino)phenyl)acrylamide], the half-maximal inhibitory concentration (IC50) in the test with NCI-H1975 cells turned out to be 34 nM; against wild-type EGFR enzyme, 15.4 nM; in test [1], 1.51 nM. The Selectivity of wild-type/mutant-type in test [1] was 10.17.

As for `C=CC(=O)Nc1cc(Nc2ncc(Cl)c(-c3cn(C4COC4)c4ccccc34)n2)c(OC)cc1N(C)CCN(C)C` [Example 130, N-(5-((5-chloro-4-(1-(oxetan-3-yl)-1H-indol-3-yl)pyrimidin-2-yl)amino)-2-((2-(dimethylamino)ethyl)(methyl)amino)-4-methoxyphenyl)acrylamide], in the test with A431 cells, the IC50 is 97 nM.

Turning to `C=CC(=O)Nc1cc(Nc2nccc(-n3nc(C)c4ccc(OC)cc43)n2)c(OC)cc1N(C)CCN1CCCC1` [Example 132, N-(4-methoxy-5-((4-(6-methoxy-3-methyl-1H-indazol-1-yl)pyrimidin-2-yl)amino)-2-(methyl(2-(pyrrolidin-1-yl)ethyl)amino)phenyl)acrylamide], the concentration for half-maximal inhibition (IC50) worked out at 10.1 nM with NCI-H1975 cells, 12 nM against wild-type EGFR enzyme and 1.29 nM in test [1]. Besides, the Selectivity of wild-type/mutant-type in test [1] is reported as 9.34.

For `C=CC(=O)Nc1cc(Nc2nccc(-n3ncc4cc(OCC)ccc43)n2)c(OC)cc1N(C)CCN1CCCC1` [Example 133], the concentration for half-maximal inhibition (IC50) turned out to be 6.47 nM in the test with NCI-H1975 cells, 7.49 nM against wild-type EGFR enzyme and 0.69 nM in test [1]. Also, the Selectivity of wild-type/mutant-type in test [1] is on record as 10.86.

For `C=CC(=O)Nc1cc(Nc2nccc(-n3cnc4ccc(OC)cc43)n2)c(OC)cc1N(C)CCN1CCCC1` [Example 139, N-(4-methoxy-5-((4-(6-methoxy-1H-benzo[d]imidazol-1-yl)pyrimidin-2-yl)amino)-2-(methyl(2-(pyrrolidin-1-yl)ethyl)amino)phenyl)acrylamide], the values for the half-maximal inhibitory concentration (IC50) (in the test on NCI-H1975 cells; at wild-type EGFR enzyme; in test [1]) were 6.28 nM, 9.16 nM and 1.44 nM, respectively. Besides, the Selectivity of wild-type/mutant-type in test [1] turned out to be 6.36.

Consider `C=CCn1cc(-c2ccnc(Nc3cc(NC(=O)C=C)c(N(C)CCN(C)C)cc3OC)n2)c2ccccc21` [Example 141, N-(5-((4-(1-allyl-1H-indol-3-yl)pyrimidin-2-yl)amino)-2-((2-(dimethylamino)ethyl)(methyl)amino)-4-methoxyphenyl)acrylamide], for which the IC50 in the test with NCI-H1975 cells is 7.51 nM; at wild-type EGFR enzyme it was 6.62 nM; in test [1], 0.6 nM. Besides, the Selectivity of wild-type/mutant-type in test [1] is on record as 11.1.

Usually IC50 stands for the concentration that inhibits the measured activity by half.

The record behind these values is patent publication US10428081B2, “EGFR inhibitor, preparation method and use thereof” (Shanghai Hansoh Biomedical Co., Ltd., priority 2014, dated 2019).
